The source of these data is patent US9963482B2, “Phosphatidylinositol-3-kinase inhibitor and pharmaceutical composition” (Tohoku University, priority 2011, dated 2018).

Like-named read-outs stand apart in the source and are kept apart here.

One experiment has as its system CO115 cells. The experiment can be described thus: Cytotoxic effect by MTT assay, CO115. In kind it is cell-based, human. To be noted: CO115, 24 hours, μM levels. Here is the method: (§1) The human culture cells used were colon cancer cell lines (HCT116, CO115, and RKO). HCT116 and RKO were obtained from American Type Culture Collection (ATCC). CO115 was obtained from John M. Mariadason (Ludwig Institute for Cancer Research, Melbourne, Australia). The cells were cultured at 37° C. in the presence of 5% CO2 by using RPMI1640 medium containing inactivated fetal bovine serum at the concentration of 10%.
(§2) After 24 hours, the number of live cells was determined by using “Cell counting kit-8” (trade name, manufactured by DOJINDO CO., LTD). […] The amount of formazan dye and the number of live cells are in proportional relationship, and by measuring the absorbance of formazan at 450 nm using a microplate reader (trade name: “SpectraMax M2e”, manufactured by Molecular Devices), the number of live cells was counted.
For orientation: Tetrazolium dyes change colour on reduction, which living cells bring about.

The next experiment has as its target HDAC1 (Homo sapiens, UniProt Q13547). To be noted: cited from earlier work.
A further experiment has as its system RKO cells. The experiment is described as follows: Cytotoxic effect by MTT assay, RKO. In kind it is cell-based, human. To be noted: 24 hours, μM levels. How it is done: as §1, §2
The target of experiment [1] is T1, human p110α expressed in budding yeast (Homo sapiens, UniProt P42336).
T1 construct: expressed in transfected cells; host or cells: Saccharomyces cerevisiae AD1-9 (LEU2-disrupted), galactose-induced
The experiment can be described thus: Screening of PI3K inhibitor using budding yeast (recovery from cell proliferation disorder caused by p110α). In kind it is cell-based. As to conditions: AD1-9 transformant expressing p110α, compound 5 μM, 24 hours, average of three tests. Here is the method: AD1-9 strain can be obtained from Nader Nourizad (Stanford Genome Technology Center Stanford University, CA, USA).
The transformed AD 1-9 strain was cultured at 30° C. in a minimal complete medium SC-U-L containing no uracil and leucine or SGal-U-L in which 2% glucose was replaced with 2% galactose.
By using the aforementioned system, screening of the compound library, which was obtained from the Screening committee of anticancer drugs supported by grant-in-aid for scientific research on priority area “Cancer” from Ministry of Education, Culture, Sports, Science, and Technology, Japan, was performed. Each compound was added to SGal-U-L liquid medium to constitute a concentration of 0.5 μM or 5 μM and the transformant of AD 1-9 was cultured for 24 hours under shaking. Thereafter, A600 was measured. […] Three independent tests were repeatedly performed to calculate the average value of A600.

For a further experiment, the target named is T2, HDAC6 (Homo sapiens, UniProt Q9UBN7).
T2 sequence (Q9UBN7 1-1215): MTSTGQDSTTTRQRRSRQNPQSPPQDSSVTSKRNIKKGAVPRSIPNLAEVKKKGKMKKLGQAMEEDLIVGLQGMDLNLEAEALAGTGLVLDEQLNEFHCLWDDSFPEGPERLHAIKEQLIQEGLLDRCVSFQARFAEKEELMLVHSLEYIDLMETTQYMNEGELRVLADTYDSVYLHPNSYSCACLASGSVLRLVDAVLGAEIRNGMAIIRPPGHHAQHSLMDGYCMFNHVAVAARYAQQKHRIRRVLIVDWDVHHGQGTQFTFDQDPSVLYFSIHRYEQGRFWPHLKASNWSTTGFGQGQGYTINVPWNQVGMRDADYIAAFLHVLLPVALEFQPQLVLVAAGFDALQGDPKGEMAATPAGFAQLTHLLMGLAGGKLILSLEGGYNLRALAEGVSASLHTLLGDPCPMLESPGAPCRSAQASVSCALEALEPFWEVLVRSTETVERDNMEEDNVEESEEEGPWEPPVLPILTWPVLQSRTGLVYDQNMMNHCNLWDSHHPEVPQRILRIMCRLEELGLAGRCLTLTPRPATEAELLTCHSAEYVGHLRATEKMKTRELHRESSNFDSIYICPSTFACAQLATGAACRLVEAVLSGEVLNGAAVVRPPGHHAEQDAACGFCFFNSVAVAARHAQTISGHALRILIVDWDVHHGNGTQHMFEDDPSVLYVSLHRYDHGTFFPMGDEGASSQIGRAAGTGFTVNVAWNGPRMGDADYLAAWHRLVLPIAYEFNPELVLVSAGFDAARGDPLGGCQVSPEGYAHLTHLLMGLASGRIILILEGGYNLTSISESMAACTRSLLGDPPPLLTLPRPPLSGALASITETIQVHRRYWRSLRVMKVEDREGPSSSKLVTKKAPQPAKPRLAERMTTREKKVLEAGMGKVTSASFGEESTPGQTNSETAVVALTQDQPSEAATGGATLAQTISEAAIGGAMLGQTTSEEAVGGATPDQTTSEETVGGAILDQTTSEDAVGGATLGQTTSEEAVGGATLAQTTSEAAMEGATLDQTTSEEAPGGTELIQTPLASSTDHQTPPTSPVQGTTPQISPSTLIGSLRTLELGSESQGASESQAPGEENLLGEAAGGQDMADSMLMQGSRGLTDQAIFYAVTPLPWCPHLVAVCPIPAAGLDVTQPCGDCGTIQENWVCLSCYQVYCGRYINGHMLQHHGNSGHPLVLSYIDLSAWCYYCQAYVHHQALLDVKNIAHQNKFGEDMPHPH
As to conditions: Table 2; cited from earlier work.

In a further experiment the target is T3, PI3K (p110α/p85α) (Homo sapiens, UniProt P42336).
T3 construct: purchased Carna Biosciences, Inc. (Kobe); contract measurement
The experiment can be described thus: In vitro PI3K inhibitory activity by mobility shift assay (Carna Biosciences). In kind it is biochemical. Here is the method:
The PI3K (p110α/p85α) inhibitory activity was evaluated at Carna Biosciences, Inc. (Kobe) by mobility shift assay which included isolation and quantification of a substrate and the phosphorylated substrate based on the mobility in a capillary (https://www.carnabio.com/japanese/product/search.cgi?mode=profiling). […] After allowing the reaction to occur for 5 hours at room temperature, the mobility shift assay was performed. The test was performed in duplicate.
Inhibition rate was calculated as follows.
The value of product/substrate+product when an agent was added thereto was calculated similarly, and the inhibition rate was calculated based on a difference from the control value.

In experiment [2] the test system is HCT116 cells. The experiment is described as follows: FACS cell cycle analysis in HCT116 cells. In kind it is cell-based, human. To be noted: HCT116, 24 hours; SAHA 2.5 μM, LY294002 50 μM, FK228 or FK-A5 at low concentration. Here is the method: The cells were collected, fixed with ethanol, stained with iodopropidium/PBS solution, and analyzed by using “Cytomics FC500 Flow Cytometry System” (trade name, manufactured by Beckman Coulter). The cell cycle fractions were calculated by using “Multicycle software” (trade name, manufactured by Phenomix Flow Systems).

Experiment [3] deals with HCT116 cells. The experiment is described as follows: Cytotoxic effect by MTT assay, HCT116. In kind it is cell-based, human. As to conditions: HCT116, 24 hours, μM levels. Here is the method:
as §1, §2

For experiment [4], the system named is AKT pathway in PC3 (prostate cancer) cells. The experiment can be described thus: AKT pathway inhibition by Western blotting in PC3 cells. In kind it is cell-based, human. How it is done:
PC3 cells were obtained from Cell Resource Center for Medical Research of Institute of Development, Aging, and Cancer, Tohoku University. The cells were cultured at 37° C. in the presence of 5% CO2 by using RPMI1640 medium containing inactivated fetal bovine serum at the concentration of 10%.
Western blotting was performed as follows. Various kinds of the cells treated with each compound were collected and lysed in a lysis buffer (500 mM Tris-HCl pH 7.5, 100 mM NaCl, 2 mM EDTA, 1 mM sodium orthovanadate, 1% NP-40, and 1% protease inhibitor cocktail, manufactured by SIGMA-ALDRICH). After centrifugation, the supernatants were collected.
The followings were used as primary antibodies.
As a secondary antibody, “Alexa Fluor680IgG” (trade name, manufactured by Invitrogen) was used. By using “Odyssey Infrared Imaging System” (trade name, manufactured by LI-COR), expression of the protein of interest was determined.
(In general: A western blot detects proteins with antibodies after separation by electrophoresis.)

T3 sequence (P42336 whole entry): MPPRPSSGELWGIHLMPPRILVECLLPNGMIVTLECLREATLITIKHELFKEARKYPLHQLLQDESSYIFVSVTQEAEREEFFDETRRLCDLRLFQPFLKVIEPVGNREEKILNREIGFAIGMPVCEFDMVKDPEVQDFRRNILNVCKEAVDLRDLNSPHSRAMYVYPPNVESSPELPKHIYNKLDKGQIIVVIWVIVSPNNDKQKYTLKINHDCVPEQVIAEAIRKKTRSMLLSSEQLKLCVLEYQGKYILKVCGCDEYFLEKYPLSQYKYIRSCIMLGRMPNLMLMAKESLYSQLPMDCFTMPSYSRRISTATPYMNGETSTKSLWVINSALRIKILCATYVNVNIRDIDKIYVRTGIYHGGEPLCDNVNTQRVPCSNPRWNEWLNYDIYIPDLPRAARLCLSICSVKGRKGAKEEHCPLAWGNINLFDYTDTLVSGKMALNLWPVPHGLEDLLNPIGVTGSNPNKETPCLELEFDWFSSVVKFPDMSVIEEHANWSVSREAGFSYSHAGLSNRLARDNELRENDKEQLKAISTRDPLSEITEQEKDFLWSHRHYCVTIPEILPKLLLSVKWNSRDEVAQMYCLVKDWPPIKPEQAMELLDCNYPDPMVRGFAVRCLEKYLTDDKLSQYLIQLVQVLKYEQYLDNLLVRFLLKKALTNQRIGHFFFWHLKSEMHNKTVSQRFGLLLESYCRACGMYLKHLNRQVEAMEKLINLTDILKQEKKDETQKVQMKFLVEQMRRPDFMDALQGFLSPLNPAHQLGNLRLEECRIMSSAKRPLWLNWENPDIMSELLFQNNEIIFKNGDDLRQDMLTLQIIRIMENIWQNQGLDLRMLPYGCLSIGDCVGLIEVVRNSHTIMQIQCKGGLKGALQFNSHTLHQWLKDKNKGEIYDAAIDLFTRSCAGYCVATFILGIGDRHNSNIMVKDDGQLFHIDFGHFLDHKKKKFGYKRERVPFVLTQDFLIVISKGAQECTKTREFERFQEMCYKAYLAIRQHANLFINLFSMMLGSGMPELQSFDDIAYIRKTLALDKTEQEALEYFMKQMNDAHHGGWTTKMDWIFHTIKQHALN
T3 sequence (P27986 whole entry partner): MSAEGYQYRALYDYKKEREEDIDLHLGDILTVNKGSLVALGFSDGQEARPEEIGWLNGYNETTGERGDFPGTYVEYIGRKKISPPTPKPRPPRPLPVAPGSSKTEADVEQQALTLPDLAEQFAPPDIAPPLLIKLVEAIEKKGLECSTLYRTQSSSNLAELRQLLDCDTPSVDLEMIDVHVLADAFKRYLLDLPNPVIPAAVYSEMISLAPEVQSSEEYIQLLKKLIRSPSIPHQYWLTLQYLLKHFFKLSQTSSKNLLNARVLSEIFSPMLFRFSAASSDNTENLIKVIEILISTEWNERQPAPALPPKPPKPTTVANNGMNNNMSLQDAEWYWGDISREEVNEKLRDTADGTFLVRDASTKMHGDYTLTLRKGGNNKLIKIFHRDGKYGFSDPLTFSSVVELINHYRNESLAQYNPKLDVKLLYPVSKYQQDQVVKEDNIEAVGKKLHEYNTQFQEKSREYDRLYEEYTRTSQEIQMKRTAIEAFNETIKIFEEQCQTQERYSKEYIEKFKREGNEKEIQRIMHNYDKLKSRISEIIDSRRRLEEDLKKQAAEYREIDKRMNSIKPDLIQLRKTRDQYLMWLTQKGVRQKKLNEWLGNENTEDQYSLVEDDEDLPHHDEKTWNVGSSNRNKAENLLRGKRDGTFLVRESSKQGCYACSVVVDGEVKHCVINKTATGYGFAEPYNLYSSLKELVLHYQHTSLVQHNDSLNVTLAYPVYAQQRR
Sequence of HDAC1 (Q13547 whole entry, species assumed): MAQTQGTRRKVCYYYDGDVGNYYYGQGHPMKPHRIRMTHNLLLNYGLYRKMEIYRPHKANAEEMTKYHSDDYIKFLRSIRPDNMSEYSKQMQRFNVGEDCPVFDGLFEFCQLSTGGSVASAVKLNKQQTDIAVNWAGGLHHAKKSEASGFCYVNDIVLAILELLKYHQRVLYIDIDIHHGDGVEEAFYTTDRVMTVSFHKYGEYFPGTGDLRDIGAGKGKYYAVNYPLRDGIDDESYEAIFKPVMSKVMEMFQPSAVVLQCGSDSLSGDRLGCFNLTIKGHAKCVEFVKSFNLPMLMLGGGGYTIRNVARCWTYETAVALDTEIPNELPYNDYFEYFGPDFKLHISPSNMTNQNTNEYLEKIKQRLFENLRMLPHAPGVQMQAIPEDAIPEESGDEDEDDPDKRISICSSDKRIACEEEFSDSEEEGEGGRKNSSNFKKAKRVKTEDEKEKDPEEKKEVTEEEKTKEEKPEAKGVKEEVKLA
T1 sequence (P42336 whole entry): as the sequence (P42336 whole entry) above

As to `CC(C)[C@H]1NC(=O)CC2/C=C/CCSSCC(NC1=O)C(=O)N[C@H](Cc1ccccc1)C(=O)NCC(=O)O2` (stereo in doubt) [FK-A5], the “number of cells at high concentration” value in the experiment on CO115 cells, in the experiment with RKO cells and in the experiment with HCT116 cells [3] was “very significantly reduced the number of cells” throughout. The 50% inhibitory concentration (IC50) – broadly, the point on the concentration scale where inhibition reaches its midpoint – on HDAC1 (Table 2) was 2.5 nM; on HDAC1 (Table 3) it was 2.5 nM; on HDAC6, 1600 nM; on PI3K (p110α/p85α) (50 μM ATP, read-out: IC50 for PI3K), 26200 nM; at PI3K (p110α/p85α) (Table 3, PI3K (p110α/p85α), read-out: PI3K IC50), 27300 nM. Moreover, the A600 in [1] was 0.449. The “PI3K activity inhibitory rate” value on PI3K (p110α/p85α) (compound 20 μM, 50 μM ATP) is given as “higher inhibition rate than FK228”. The inhibition at 20 µM at PI3K (p110α/p85α) (compound 20 μM, 50 μM ATP, read-out: PI3K activity inhibitory rate) came out at 66.8%. Moreover, the cell cycle arrest result with HCT116 cells [2] was “induced cell cycle arrest, predominantly at G2/M phase”. The “expression level of phosphorylated AKT (Ser-473, Thr-308) over time” value in [4] (10 μM, 5 to 180 minutes) is “lowered the expression level of phosphorylated AKT (Ser-473, Thr-308)”. Besides, the “phosphorylated ERK1/2” value in experiment [4] (180 minutes) is recorded as “slightly inhibited”. Moreover, the “phosphorylated MEK1/2” value in experiment [4] (180 minutes) was “not inhibited”. In addition, the “expression levels of phosphorylated AKT, GSK-3β, mTOR, p70S6K and 4E-BP1” value in [4] (180 minutes, varying concentration) was “inhibited in a concentration dependent manner”.
